Measurements reported in patent US20100137261A1, “Method for treating aortic stenosis with non-antibacterial tetracycline formulations” (priority 2004, published 2010).
Counter-ions that a name gives are not always drawn. Like-named read-outs stand apart in the source and are kept apart here.

Tests used:
[1] = 250 mg tetracycline HCl every six hours over a twenty-four hour period; cited from earlier work
[2] = system: matrix metalloproteinase-9 (MMP-9) synthesis; experiment: Stenotic valve tissue culture, gelatinase (MMP-2 and MMP-9) assay; assay type: cell-based
Description: The study was conducted using tissue collected from four surgically removed, stenotic tricuspid valves. […] Gelatinases (MMP-2 and MMP-9) from the valve tissue samples were assayed. The analyzed bands were related to the total protein measured using a Bio-Rad DC Protein Assay Kit (Bio-Rad, Hercules, Calif.).

[3] = single dose of two 100 mg minocycline HCl tablets, adult human; cited from earlier work
[4] = Serum levels after oral dosing in humans; conditions: dose of about 10 to about 20 mg/day
[5] = 1 μM, stenotic tricuspid valve tissue incubated for ten days

For CN(C)[C@@H]1C(O)=C(C(N)=O)C(=O)[C@@]2(O)C(O)=C3C(=O)c4c(O)cccc4[C@@](C)(O)[C@H]3C[C@@H]12 [tetracycline HCl], the peak plasma concentration [1] is given as “approximately 3 μg/ml”.
In the case of CC1c2cccc(O)c2C(=O)C2=C(O)C3(O)C(=O)C(C(N)=O)=C(O)CC3C(O)C21 (stereo not drawn) [CMT-8, 4-dedimethylaminodoxycycline], the MMP-9 inhibitory effect [2, 5] is reported as “inhibitory effect was seen”.
For CN(C)c1ccc(O)c2c1C[C@H]1C[C@H]3[C@H](N(C)C)C(O)=C(C(N)=O)C(=O)[C@@]3(O)C(O)=C1C2=O [minocycline HCl], the “minocycline serum level (average)” value [3] is given as 2.24 µg/mL.
For CN(C)[C@@H]1C(O)=C(C(N)=O)C(=O)[C@@]2(O)C(O)=C3C(=O)c4c(O)cccc4[C@@](C)(O)[C@H]3C[C@@H]12 [tetracycline], the MMP-9 inhibitory effect [2, 5] was “no significant inhibitory effect” and the “expression of MMP-9 / MMP-9 synthesis” value ([2]; 30 μM, stenotic tricuspid valve tissue incubated for ten days) was “had an inhibitory effect on MMP-9 synthesis, but only at the end of the culture”.
With NC(=O)C1=C(O)C[C@@H]2C[C@@H]3Cc4cccc(O)c4C(=O)C3=C(O)[C@]2(O)C1=O [CMT-3, 6-demethyl-6-deoxy-4-de(dimethylamino)tetracycline] the “serum levels in humans” value [4] was “about 1.0 μg/ml”, the MMP-9 inhibitory effect [2] was “inhibitory effect was seen” and the “comparative efficiency of impact on MMP-9 synthesis” value [2] was “most efficient inhibitor of MMP-9 synthesis”. For the same compound, the “expression of MMP-9 / MMP-9 synthesis” value [2] was “decreased significantly from day 6 to the end of the culture”.
